Structures are written as SMILES. Values joined by “and” are separate entries in the source; they are usually repeats but may differ in a detail not shown here. Equal values may be shown once.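 Growth conditions: 96-well plates. Treatment: test compound, 48 hours, 5 concentrations. Analysis: linear interpolation between bracketing concentrations; unreached endpoints set to highest concentration. At the GI50, growth is halved. TGI is the concentration that stops growth completely.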

Test systems include CCRF-CEM leukemia; DU-145 prostate; K-562 leukemia; KM12 colon; MOLT-4 leukemia; NCI-H226 lung; NCI-H460 lung; OVCAR-8 ovarian; SNB-75 CNS; UO-31 renal.
Holding throughout (experiment): NCI-60 cell line screen, 48 h

As for `NC(=S)N/N=C/c1ccc(O)cn1`, the GI50 with CCRF-CEM leukemia was 4.59 µM and 2.42 µM; in the experiment with K-562 leukemia, 12.3 µM and 7.25 µM; with KM12 colon, 35 µM; in the experiment on MOLT-4 leukemia, 6.5 µM and 3.19 µM and 1.36 µM; in the experiment on NCI-H226 lung, 29.7 µM; in the experiment with NCI-H460 lung, 29.1 µM. Besides, the GI50 with OVCAR-8 ovarian is 4.71 µM; in the experiment with SNB-75 CNS, 13.8 µM; with UO-31 renal, 25.5 µM and 7.24 µM. The TGI in the experiment with CCRF-CEM leukemia is 37.4 µM and 12 µM and 60.8 µM; in the experiment on DU-145 prostate it was 314 µM; in the experiment on K-562 leukemia it was 55.2 µM and 439 µM; in the experiment on KM12 colon, more than 1500 µM; with NCI-H226 lung, 83.7 µM and 374 µM; in the experiment with NCI-H460 lung, 595 µM. In addition, the TGI was 72.3 µM and 161 µM and 393 µM in the experiment on OVCAR-8 ovarian; 60.4 µM and 227 µM in the experiment on SNB-75 CNS; 66.7 µM and 42 µM and 136 µM with UO-31 renal.
Take `O=C(NCCCCCCNC(=O)n1cc(F)c(=O)[nH]c1=O)NCCCOCCOCCOCCOCCOCCOCCOCCOCCOCCOCCOCCOCCOCCOCCOCCOCCOCCOCCOCCOCCOCCCNC(=O)C(O)C(O)C(OC1OC(CO)C(O)C(O)C1O)C(O)CO` (configuration not stated): the TGI in the experiment with CCRF-CEM leukemia, in the experiment with DU-145 prostate, in the experiment with K-562 leukemia, in the experiment with KM12 colon, in the experiment with MOLT-4 leukemia and with NCI-H226 lung was more than 100 µM in each case. Also, the TGI was more than 100 µM with NCI-H460 lung, more than 100 µM with OVCAR-8 ovarian, more than 43.7 µM in the experiment on SNB-75 CNS and more than 100 µM in the experiment with UO-31 renal.
Turning to `O=CC(Br)C(Br)c1ccccc1` (configuration not stated), the GI50 in the experiment with CCRF-CEM leukemia is 0.374 µM; with DU-145 prostate, 2.26 µM; with K-562 leukemia it was 0.963 µM; in the experiment on KM12 colon, 12.6 µM; with MOLT-4 leukemia, 0.904 µM; in the experiment with NCI-H226 lung, 6.8 µM. For the same compound, the GI50 with NCI-H460 lung is 14.5 µM; in the experiment with OVCAR-8 ovarian, 2.95 µM; in the experiment with SNB-75 CNS, 7.69 µM; in the experiment with UO-31 renal, 1.48 µM. Further, the TGI was found to be 1.94 µM with CCRF-CEM leukemia; 5.74 µM with DU-145 prostate; 6.84 µM with K-562 leukemia; 26 µM in the experiment with KM12 colon; 3.89 µM in the experiment on MOLT-4 leukemia; 18.7 µM in the experiment on NCI-H226 lung. Also, the TGI in the experiment on NCI-H460 lung stood at 31.2 µM; with OVCAR-8 ovarian, 10.2 µM; with SNB-75 CNS, 20.9 µM; in the experiment with UO-31 renal, 3.07 µM.
For the compound `CCCCOC(=O)c1ccc(NC(=O)CCl)cc1`, the GI50 in the experiment on CCRF-CEM leukemia is 0.789 µM; in the experiment on DU-145 prostate, 1.81 µM; in the experiment with K-562 leukemia, 2.98 µM; in the experiment on KM12 colon, 2.07 µM; in the experiment with MOLT-4 leukemia, 1.82 µM; in the experiment with NCI-H226 lung, 4.82 µM. Also, the GI50 was 3.09 µM with NCI-H460 lung, 2.29 µM in the experiment on OVCAR-8 ovarian, 1.86 µM in the experiment on SNB-75 CNS and 1.39 µM in the experiment with UO-31 renal. Besides, the TGI in the experiment on CCRF-CEM leukemia was 6.07 µM; in the experiment with DU-145 prostate, 3.26 µM; in the experiment on K-562 leukemia, more than 100 µM; in the experiment with KM12 colon, 4.52 µM; in the experiment with MOLT-4 leukemia, 6.21 µM; in the experiment on NCI-H226 lung it was 23.1 µM. Further, the TGI in the experiment with NCI-H460 lung came out at 10.7 µM; in the experiment with OVCAR-8 ovarian, 4.73 µM; with SNB-75 CNS, 5.96 µM; in the experiment on UO-31 renal, 2.84 µM.
Regarding `COc1ccc(-c2nn(-c3cccc(Cl)c3)cc2-c2c(C#N)c(=O)n3[nH]c(-c4ccc(C)cc4)nc3c2C#N)cc1`, the GI50 in the experiment with CCRF-CEM leukemia is 1.23 µM; in the experiment with DU-145 prostate, 2.74 µM; in the experiment with K-562 leukemia it was 1.43 µM; in the experiment on KM12 colon it was 3.39 µM; with MOLT-4 leukemia it was 0.752 µM; with NCI-H226 lung, 2.39 µM. For the same compound, the GI50 was 1.85 µM in the experiment on NCI-H460 lung, 0.818 µM in the experiment on OVCAR-8 ovarian, 0.828 µM in the experiment with SNB-75 CNS and 3.39 µM in the experiment with UO-31 renal. In addition, the TGI is more than 50 µM with CCRF-CEM leukemia; 21.9 µM in the experiment with DU-145 prostate; more than 50 µM with K-562 leukemia; 24.2 µM with KM12 colon; 5.46 µM with MOLT-4 leukemia; 9.62 µM with NCI-H226 lung. The TGI in the experiment on NCI-H460 lung worked out at 8.31 µM; in the experiment on OVCAR-8 ovarian it was 2.99 µM; in the experiment with SNB-75 CNS it was 2.4 µM; with UO-31 renal, 11.2 µM.
Regarding `CN1C(=O)C(=Cc2cn(Cc3ccccc3)c3ccccc23)C(=O)N(C)C1=O`, the GI50 with CCRF-CEM leukemia was more than 77.6 µM; in the experiment on DU-145 prostate, 87.2 µM; in the experiment on K-562 leukemia it was 5.08 µM; with KM12 colon, 52.4 µM; in the experiment on MOLT-4 leukemia it was 68.3 µM; in the experiment with NCI-H226 lung, 3.46 µM. Moreover, the GI50 is 1.24 µM in the experiment with NCI-H460 lung, 35.8 µM in the experiment on OVCAR-8 ovarian, 34.2 µM in the experiment with SNB-75 CNS and more than 38.8 µM in the experiment on UO-31 renal. The TGI in the experiment with CCRF-CEM leukemia is more than 100 µM; with DU-145 prostate, more than 100 µM; in the experiment on K-562 leukemia it was more than 100 µM; in the experiment on KM12 colon, more than 100 µM; with MOLT-4 leukemia, more than 100 µM; in the experiment on NCI-H226 lung, 27.8 µM. Besides, the TGI in the experiment on NCI-H460 lung is more than 100 µM; with OVCAR-8 ovarian it was more than 82.6 µM; in the experiment with SNB-75 CNS, more than 100 µM; in the experiment on UO-31 renal, more than 81.4 µM.
In the case of `COc1ccc(-c2cn(-c3cccc(C(=O)/C=C/c4ccc(O)c(OC)c4)c3)c(=O)[nH]2)cc1`, the GI50 was 1.19 µM in the experiment on CCRF-CEM leukemia; 3.02 µM with DU-145 prostate; 4.71 µM in the experiment on K-562 leukemia; 1.7 µM in the experiment with KM12 colon; 2.87 µM in the experiment with MOLT-4 leukemia; 5.25 µM with NCI-H226 lung. The GI50 was 3.21 µM in the experiment with NCI-H460 lung, 3.58 µM with OVCAR-8 ovarian, 4.75 µM in the experiment with SNB-75 CNS and 3.64 µM with UO-31 renal. In addition, the TGI in the experiment on CCRF-CEM leukemia is 5.81 µM; in the experiment with DU-145 prostate, 9.27 µM; with K-562 leukemia, more than 37.7 µM; in the experiment on KM12 colon, 3.57 µM; with MOLT-4 leukemia, more than 23.8 µM; in the experiment with NCI-H226 lung, more than 59.5 µM. For the same compound, the TGI was 10.4 µM in the experiment with NCI-H460 lung, more than 49.6 µM with OVCAR-8 ovarian, more than 80.2 µM in the experiment on SNB-75 CNS and 40.3 µM with UO-31 renal.
Regarding `CCCOC(=O)N[C@H]1CCc2cc(OC)c(OC)c(OC)c2-c2ccc(SC)c(=O)cc21`, the GI50 in the experiment with CCRF-CEM leukemia, with DU-145 prostate, in the experiment with K-562 leukemia, with KM12 colon, in the experiment on MOLT-4 leukemia and with NCI-H226 lung was less than 0.01 µM throughout. Also, the GI50 with NCI-H460 lung, in the experiment with OVCAR-8 ovarian and in the experiment with SNB-75 CNS was less than 0.01 µM each time. Moreover, the TGI in the experiment on CCRF-CEM leukemia was 19.7 µM; in the experiment on DU-145 prostate, more than 100 µM; in the experiment on K-562 leukemia, 24.1 µM; in the experiment with KM12 colon it was more than 38.6 µM; in the experiment on MOLT-4 leukemia, 24.4 µM; in the experiment with NCI-H226 lung, 10.6 µM. Besides, the TGI is 11.7 µM in the experiment on NCI-H460 lung, more than 100 µM in the experiment on OVCAR-8 ovarian, more than 100 µM with SNB-75 CNS and 42 µM in the experiment with UO-31 renal.
